Reference: patent publication US20210284691A1, “CBX8 CHROMDOMAIN INHIBITORS AND THE USES THEREOF” (Purdue Research Foundation, priority 2019, published 2021)
Square brackets hold non-standard residues; d marks the D form. Peptide text beside a SMILES is read from it. * marks the point of attachment. Tyr(3-Cl) = N[C@@H](Cc1ccc(O)c(Cl)c1)C(=O)O; Benzoyl(3,5-Cl2) = O=C(c1cc(Cl)cc(Cl)c1)*; Lys(Et2) = CCN(CC)CCCC[C@H](N)C(=O)O; Gly(cPent) = N[C@H](C(=O)O)C1CCCC1; NH(propargyl) = C#CCN*

What was measured:
Assay type in all cases: cell-based
[1] = target: T1, CBX2 binding to chromatin (Homo sapiens, UniProt Q14781); test: ChIP-qPCR in K562 cells
T1 construct: endogenous in cells; host or cells: HEK293T (A21); K562 (A22)
Description: FIGS. 11A-11E: Cellular Activity of CBX2 ChD Ligand. FIG. 11A) Relative cytosolic access of SW2_152F conjugated to a chloroalkane (SW2_152F-CA, SEQ ID NO: 28) was evaluated using chloroalkane penetration assay (CAPA). The half maximal cell penetration value (CP50) of SW2_152F-CA was determined for SW2_152F-CA and CBX8 inhibitor SW2_110A-CA. FIG. 11B) Chemoprecipitations from HEK293T nuclear lysates using biotinylated SW2_152F (SW2_152F-B, SEQ ID NO: 29) were analyzed using immunoblot analysis. FIG. 11C) Analysis and quantification of SW2_152F in abrogating bulk binding of endogenous CBX proteins to chromatin in HEK293T cells by Sequential Salt Extraction. FIG. 11D). Chromatin immunoprecipitation (ChIP) from K562 cells using antibodies against IgG, H3K27me3, CBX2 and CBX8 was followed by quantitative PCR of genomic regions near Tm9SF4 (negative locus), TCF21, Fyn-2, and PAX7. Cells were treated with 10 μM SW2_152F for 4 h prior to harvest. FIG. 11E) Chromatin immunoprecipitation (ChIP) in Hs68 fibroblast cells using antibodies against IgG, CBX7, and CBX8 followed by quantitative PCR of genomic regions at LMNB2 (negative locus), CCND2, and RUNX3. Cells were treated with 100 μM SW2_152F for 4 h prior to harvest. For all qPCR, error bars represent SEM n=3 biological replicates, p-values were calculated using two-tailed Student's t-test, * p<0.05, **=p<0.01, ***=p<0.001, ****=p<0.0001.
ChIP-qPCR. After validating selectivity using lysate and bulk chromatin, we wanted to determine whether the inhibitor can disrupt CBX2 binding to chromatin in live cells. We used chromatin immunoprecipitation (ChIP) followed by quantitative PCR (ChIP-qPCR) of sites with CBX2, CBX8 and H3K27me3 enrichment in K562 ChIP-Seq datasets in ENCODE (M. Azkanaz, et al., Elife 2019). We evaluated effects of compound treatment at both 10 μM and 100 μM SW2_152F. […] In order to evaluate SW2_152F activity against a paralog with no binding to SW2_152F in vitro, CBX7 ChIP-qPCR was performed in Hs68 fibroblast cells, which have no detectable CBX2 expression (H. Pemberton, et al., Genome Biol. 2014).

[2] = target: T2, CBX7 bulk chromatin binding (Homo sapiens, UniProt O95931); test: Sequential salt extraction (SSE) in HEK293T cells; settings: 10 μM
T2 construct: endogenous in cells; host or cells: Hs68 fibroblasts (A17); HEK293T (A20)

[3] = target: T3, CBX8 bulk chromatin binding (Homo sapiens, UniProt Q9HC52); test: Sequential salt extraction (SSE) in HEK293T cells; settings: 10 μM
T3 construct: endogenous in cells; host or cells: HEK293T (A19)
T3 sequence (Q9HC52 whole entry): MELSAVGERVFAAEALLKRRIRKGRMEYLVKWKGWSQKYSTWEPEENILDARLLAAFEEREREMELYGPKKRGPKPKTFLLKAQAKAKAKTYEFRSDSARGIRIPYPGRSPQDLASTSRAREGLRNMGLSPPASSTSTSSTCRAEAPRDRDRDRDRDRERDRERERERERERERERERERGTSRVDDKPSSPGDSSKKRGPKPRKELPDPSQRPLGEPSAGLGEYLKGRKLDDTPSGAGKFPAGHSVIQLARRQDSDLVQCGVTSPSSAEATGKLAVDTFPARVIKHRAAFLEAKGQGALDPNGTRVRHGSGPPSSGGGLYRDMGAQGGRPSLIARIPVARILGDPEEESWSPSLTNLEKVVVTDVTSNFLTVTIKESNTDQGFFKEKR
Description: Sequential Salt Extraction. […] In this assay, bulk chromatin is sequentially resuspended in increasing concentrations of sodium chloride, and the proteins eluted with each wash are quantified using immunoblotting.
Next day, media was removed and cells were washed with PBS. […] After the 4-hour pretreatment, media was removed and cells were washed again with PBS. Cells were harvested and washed with PBS. (Note: it is critical to balance the cell numbers the same in the peptide treated group and the DMSO treated control group.) Cells were resuspended in 1 mL Buffer A (25 mM HEPES, 25 mM KCl, 5 mM MgCla, 0.1% NP-40, 10% Glycerol, 0.05 M EDTA, pH 7.8, plus protease inhibitor) was added to the cell pellet from centrifuge and rotated at 4° C. for 10 minutes (Porter et al.). Cells were spun down at 6500×g for 5 min at 4° C. […] (Note: it is critical to maintain the consistence for all washing steps with the subsequent NaCl containing mRIPA buffers) Then the sample was centrifuged for 3 min at 6500×g. The supernatant was saved in a separate tube, labeled as “0 mM fraction”—0 mM sequential salt extraction washing supernatant. […] The procedures for OmM was repeated for each salt concentrations in the subsequent washes. All washing supernatants were saved and labeled. […] ImageJ was employed to quantitate the protein bands.

T1 sequence (Q14781 whole entry): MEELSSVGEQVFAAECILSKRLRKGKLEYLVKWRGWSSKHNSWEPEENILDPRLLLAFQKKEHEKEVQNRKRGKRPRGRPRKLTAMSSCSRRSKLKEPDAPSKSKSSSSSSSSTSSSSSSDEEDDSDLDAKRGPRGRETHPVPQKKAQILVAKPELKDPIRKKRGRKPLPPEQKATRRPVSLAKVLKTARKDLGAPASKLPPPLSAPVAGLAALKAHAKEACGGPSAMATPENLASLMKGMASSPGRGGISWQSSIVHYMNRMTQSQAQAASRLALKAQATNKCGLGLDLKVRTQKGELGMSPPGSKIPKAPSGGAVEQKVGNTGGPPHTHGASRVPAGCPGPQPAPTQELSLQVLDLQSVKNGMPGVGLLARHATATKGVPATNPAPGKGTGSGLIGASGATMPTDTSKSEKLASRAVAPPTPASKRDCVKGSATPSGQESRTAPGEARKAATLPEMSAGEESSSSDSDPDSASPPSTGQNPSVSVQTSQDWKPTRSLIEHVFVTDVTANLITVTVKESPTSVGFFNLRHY
T2 sequence (O95931 whole entry): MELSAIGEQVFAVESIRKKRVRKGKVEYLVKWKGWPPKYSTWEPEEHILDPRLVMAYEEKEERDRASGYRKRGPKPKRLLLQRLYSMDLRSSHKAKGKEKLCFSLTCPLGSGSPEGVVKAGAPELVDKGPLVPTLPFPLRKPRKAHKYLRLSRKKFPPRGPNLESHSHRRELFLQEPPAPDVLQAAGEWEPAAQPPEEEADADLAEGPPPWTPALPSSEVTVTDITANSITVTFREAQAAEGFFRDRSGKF

With C#CCNC(=O)[C@H](CO)NC(=O)[C@H](CCCCN(CC)CC)NC(=O)[C@@H](NC(=O)[C@@H](NC(=O)[C@H](Cc1ccc(O)c(Cl)c1)NC(=O)c1cc(Cl)cc(Cl)c1)C1CCCC1)[C@@H](C)CC [SW2_152F] ({Benzoyl(3,5-Cl2)}-[Tyr(3-Cl)][Gly(cPent)]I[Lys(Et2)]S-{NH(propargyl)}) the “CBX2 binding, ChIP-qPCR” value ([1]; 10 μM, 4 h) was “significant reduction of CBX2 binding”, the “CBX2 binding, ChIP-qPCR” value ([1]; 100 μM) was “significant reduction of both CBX2 and CBX8 binding” and the “CBX7 binding to chromatin, SSE” value [2] was “No effect”. The “CBX8 binding to chromatin, SSE” value [3] was “only a modest change”.
